Assay results taken from US20220362249A1, “METHODS FOR TREATING […]” (PTC Therapeutics MP, Inc., priority 2019, published 2022).
Where two headings read alike, the source gives them in different places.

Assays:
[1] = Food effect on administration of sepiapterin: plasma sepiapterin and BH4 concentrations, fasted vs fed; format: in vivo, human; settings: sepiapterin 10 mg/kg oral; for concentration at 0 h / concentration at 0.5 h / concentration at 1 h / concentration at 2 h / concentration at 4 h / concentration at 8 h / concentration at 12 h / concentration at 24 h: human, oral, 10 mg/kg; for concentration at 0 h: 0 h (predose)
Protocol: Method: Subjects received 2 oral doses of sepiapterin (10 mg/kg) separated by 1 week in a fasted and fed state. Subjects were fed a standard high-fat (approximately 50 percent of total caloric content of the meal) and high-calorie (approximately 800 to 1000 calories) meal starting 30 minutes prior to receiving their second oral dose of sepiapterin on Day 8.
Sampling for PK analysis occurred predose on Days 1 and 8 (within 30 minutes before dosing) and 0.5 hr, 1 hr, 2 hr, 4 hr, 8 hr, 12 hr, and 24 hr after the doses on Days 1 and 8. The blood concentrations of sepiapterin and BH4 were analyzed by MNG Labs.

[2] = Pharmacokinetic analysis of multiple doses of sepiapterin (once daily for 7 days, fed subjects); format: in vivo, human; settings: human, plasma, fed; for AUC(0-t): read-out: AUC0-24; for Cmax: read-out: Cmax
Description: Methods: Three cohorts of eight fed subjects each were randomized to receive once-daily sepiapterin or placebo for 7 days in a 6:2 ratio. A sentinel dose strategy was also used for administration of the highest sepiapterin dose.

[3] = plasma, fasted, read-out: Concentration in Plasma, Maximum
[4] = plasma, fasted, read-out: Concentration in Plasma, Mean
[5] = plasma, fasted, read-out: Concentration in Plasma, Median
[6] = plasma, fasted, read-out: Concentration in Plasma, Minimum
[7] = plasma, fed (high-fat meal), read-out: Concentration in Plasma, Maximum
[8] = plasma, fed (high-fat meal), read-out: Concentration in Plasma, Mean
[9] = plasma, fed (high-fat meal), read-out: Concentration in Plasma, Median
[10] = plasma, fed (high-fat meal), read-out: Concentration in Plasma, Minimum
[11] = 5 mg/kg, Day 1, sepiapterin 5 mg/kg once daily
[12] = 5 mg/kg, Day 7, sepiapterin 5 mg/kg once daily
[13] = 20 mg/kg, Day 1, sepiapterin 20 mg/kg once daily
[14] = 20 mg/kg, Day 7, sepiapterin 20 mg/kg once daily
[15] = 60 mg/kg, Day 1, sepiapterin 60 mg/kg once daily
[16] = 60 mg/kg, Day 7, sepiapterin 60 mg/kg once daily

`C[C@H](O)[C@H](O)[C@H]1CNc2nc(N)[nH]c(=O)c2N1` [BH4, Tetrahydrobiopterin] gave a concentration at 0 h [1, 3] of 9 nM, a concentration at 0 h [1, 4] of 7.62 nM and a concentration at 0 h [1, 5] of 7.75 nM. The concentration at 0 h [1, 6] was 5 nM, the concentration at 0.5 h [1, 3] was 66.5 nM and the concentration at 0.5 h [1, 4] was 25.6 nM. For the same molecule, the concentration at 0.5 h [1, 5] was 22.9 nM, the concentration at 0.5 h [1, 6] was 13.8 nM and the concentration at 1 h [1, 3] was 223 nM. It also gave a concentration at 1 h [1, 4] of 155 nM, a concentration at 1 h [1, 5] of 147 nM and a concentration at 1 h [1, 6] of 98.5 nM. For the same molecule, the concentration at 2 h [1, 3] was 618 nM, the concentration at 2 h [1, 4] was 413 nM and the concentration at 2 h [1, 5] was 370 nM. It also gave a concentration at 2 h [1, 6] of 271 nM, a concentration at 4 h [1, 3] of 1130 nM and a concentration at 4 h [1, 4] of 624 nM. The concentration at 4 h [1, 5] was 635 nM, the concentration at 4 h [1, 6] was 379 nM and the concentration at 8 h [1, 3] was 457 nM. For the same molecule, the concentration at 8 h [1, 4] was 248 nM, the concentration at 8 h [1, 5] was 233 nM and the concentration at 8 h [1, 6] was 90.2 nM. For the same molecule, the concentration at 12 h [1, 3] was 162 nM, the concentration at 12 h [1, 4] was 85.9 nM and the concentration at 12 h [1, 5] was 75.3 nM. It also gave a concentration at 12 h [1, 6] of 38.9 nM, a concentration at 24 h [1, 3] of 37.4 nM and a concentration at 24 h [1, 4] of 18.3 nM. The concentration at 24 h [1, 5] was 15.3 nM, the concentration at 24 h [1, 6] was 8.5 nM and the concentration at 0 h [1, 7] was 11 nM. For the same molecule, the concentration at 0 h [1, 8] was 8.43 nM, the concentration at 0 h [1, 9] was 8.5 nM and the concentration at 0 h [1, 10] was 6 nM. It also gave a concentration at 0.5 h [1, 7] of 76.4 nM, a concentration at 0.5 h [1, 8] of 33.3 nM and a concentration at 0.5 h [1, 9] of 30.9 nM. It also gave a concentration at 0.5 h [1, 10] of 8.9 nM, a concentration at 1 h [1, 7] of 369 nM and a concentration at 1 h [1, 8] of 166 nM. For the same molecule, the concentration at 1 h [1, 9] was 160 nM, the concentration at 1 h [1, 10] was 42.3 nM and the concentration at 2 h [1, 7] was 1200 nM. For the same molecule, the concentration at 2 h [1, 8] was 587 nM, the concentration at 2 h [1, 9] was 554 nM and the concentration at 2 h [1, 10] was 299 nM. It also gave a concentration at 4 h [1, 7] of 1570 nM, a concentration at 4 h [1, 8] of 1100 nM and a concentration at 4 h [1, 9] of 1010 nM. The concentration at 4 h [1, 10] was 751 nM, the concentration at 8 h [1, 7] was 926 nM and the concentration at 8 h [1, 8] was 520 nM. For the same molecule, the concentration at 8 h [1, 9] was 485 nM, the concentration at 8 h [1, 10] was 253 nM and the concentration at 12 h [1, 7] was 261 nM. It also gave a concentration at 12 h [1, 8] of 161 nM, a concentration at 12 h [1, 9] of 142 nM and a concentration at 12 h [1, 10] of 90.4 nM. For the same molecule, the concentration at 24 h [1, 7] was 40.1 nM, the concentration at 24 h [1, 8] was 19.3 nM and the concentration at 24 h [1, 9] was 16.1 nM. The concentration at 24 h [1, 10] was 12.1 nM, the “Geometric mean ratio (fasted/fed, 90% CI) for AUC0-inf” value ([1]; plasma) was 0.58 (0.47 to 0.71) and the “Geometric mean ratio (fasted/fed, 90% CI) for Cmax” value ([1]; plasma) was 0.55 (0.45 to 0.68). For the same molecule, the “Cmax in the plasma, fed compared to fasted subjects (in words)” value [1] was “much higher”, the “Increase in overall exposure (AUC0-inf and AUClast), fed compared with fasted state” value [1] was 1.7 fold and the Tmax [2, 11] was 4 h. The AUC(0-t) [2, 11] was 994 ng·h/mL, the Cmax [2, 11] was 147 ng/mL and the Tmax [2, 12] was 4 h. It also gave an AUC(0-t) [2, 12] of 1070 ng·h/mL, a Cmax [2, 12] of 152 ng/mL and a Tmax [2, 13] of 4 h. For the same molecule, the AUC(0-t) [2, 13] was 3030 ng·h/mL, the Cmax [2, 13] was 496 ng/mL and the Tmax [2, 14] was 4 h. For the same molecule, the AUC(0-t) [2, 14] was 3720 ng·h/mL, the Cmax [2, 14] was 516 ng/mL and the Tmax [2, 15] was 4.6 h. The AUC(0-t) [2, 15] was 4560 ng·h/mL, the Cmax [2, 15] was 597 ng/mL and the Tmax [2, 16] was 4 h. It also gave an AUC(0-t) [2, 16] of 4860 ng·h/mL, a Cmax [2, 16] of 678 ng/mL and an AUC(0-inf) ([2]; Day 1, sepiapterin 5 mg/kg once daily) of 1010 ng·h/mL. The AUC(0-inf) ([2]; Day 1, sepiapterin 20 mg/kg once daily) was 3080 ng·h/mL and the AUC(0-inf) ([2]; Day 1, sepiapterin 60 mg/kg once daily) was 4670 ng·h/mL.
